Laboratory results reported in BindingDB's records for doi:10.7270/Q2P26WJQ (The Scripps Research Institute Molecular Screening Center, 2009).
pIC50: −log10 of the molar value.

Molecular target: Transitional endoplasmic reticulum ATPase (Homo sapiens, UniProt P55072)
Assay: p97 ATPase inhibitors, dose response, biochemical (AID 1534)

Transitional endoplasmic reticulum ATPase, sequence (P55072 whole entry): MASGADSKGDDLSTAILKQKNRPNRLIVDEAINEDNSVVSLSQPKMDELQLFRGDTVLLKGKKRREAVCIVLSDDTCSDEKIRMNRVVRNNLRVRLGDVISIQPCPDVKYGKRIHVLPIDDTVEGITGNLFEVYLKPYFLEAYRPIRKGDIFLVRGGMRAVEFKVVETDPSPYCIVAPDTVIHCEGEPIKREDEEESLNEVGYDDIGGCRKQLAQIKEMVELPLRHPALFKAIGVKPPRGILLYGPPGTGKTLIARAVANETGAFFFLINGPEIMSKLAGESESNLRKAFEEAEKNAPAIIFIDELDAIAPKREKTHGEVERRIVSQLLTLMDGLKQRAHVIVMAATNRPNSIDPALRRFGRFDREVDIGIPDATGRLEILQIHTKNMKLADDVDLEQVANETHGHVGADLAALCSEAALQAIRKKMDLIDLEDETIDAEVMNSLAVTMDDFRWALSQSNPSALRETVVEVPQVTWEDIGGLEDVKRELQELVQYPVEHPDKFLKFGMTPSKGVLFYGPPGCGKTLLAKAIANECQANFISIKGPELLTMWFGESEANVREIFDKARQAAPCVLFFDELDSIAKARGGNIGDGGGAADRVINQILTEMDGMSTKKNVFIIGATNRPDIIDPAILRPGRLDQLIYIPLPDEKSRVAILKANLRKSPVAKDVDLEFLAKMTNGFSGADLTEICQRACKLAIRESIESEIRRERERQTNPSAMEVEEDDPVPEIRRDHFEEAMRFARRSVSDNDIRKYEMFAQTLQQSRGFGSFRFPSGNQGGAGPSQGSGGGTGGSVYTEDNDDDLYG

| SMILES | pIC50 |
| --- | --- |
| COc1ccc(CN=Nc2nnc(-c3ccccc3)c(=O)[nH]2)cc1 [4-methoxybenzaldehyde (5-oxo-6-phenyl-4,5-dihydro-1,2,4-triazin-3-yl)hydrazone] | < 4.30 |
| Cc1ccc(SCC(=O)C(C#N)c2nc3ccccc3s2)cc1 (configuration not stated) [(2Z)-2-(3H-1,3-benzothiazol-2-ylidene)-3-keto-4-(p-tolylthio)butyronitrile] | < 4.30 |
| CN(C)[C@@H]1C(=O)C(C(N)=O)C(=O)[C@@]2(O)C(=O)C3C(=O)c4c(O)cccc4[C@@](C)(O)[C@H]3[C@H](O)[C@@H]12 (stereo partly drawn) [(2E,4S,4aR,5S,5aR,6S,12aS)-2-[azanyl(oxidanyl)methylidene]-4-(dimethylamino)-6-methyl-5,6,10,11,12a-pentakis(oxidanyl)-4,4a,5,5a-tetrahydrotetracene-1,3,12-trione] | < 4.30 |
| Cc1ccc(C)c(SCC(=O)OCC(=O)C(C#N)c2nc3ccccc3[nH]2)c1 (configuration not stated) [MLS000392255] | < 4.30 |
| NS(=O)(=O)c1ccc(N=NCc2ccc(O)c(O)c2O)c([N+](=O)[O-])c1 [4-[[(E)-(2,3-dihydroxy-4-oxo-1-cyclohexa-2,5-dienylidene)methyl]hydrazo]-3-nitrobenzenesulfonamide] | < 4.30 |
| On1[o+]nc2c1CCc1nc(-c3ccccc3)[n-]c1-2 [3-oxidanidyl-7-phenyl-4,5-dihydro-1H-imidazo[4,5-g][2,1,3]benzoxadiazol-3-ium] | < 4.30 |
| Oc1ccc(CN=Nc2ccnc3cc(Cl)ccc23)cc1O [(4Z)-4-[[2-(7-chloroquinolin-4-yl)hydrazinyl]methylidene]-2-hydroxycyclohexa-2,5-dien-1-one] | 4.44 |
